The values below come from patent publication US20050233974A1, “Treating infectious diseases using ice inhibitors” (priority 2003, published 2005).

The subject of assay [1] is P. aeruginosa strain 19660. The experiment in a line: corneal infection model, P. aeruginosa ATCC strain 19660. The assay is classed as in vivo, B6 mice. Here is the method:
Eight week old female B6 mice (The Jackson Laboratory, Bar Harbor, Me.) were used in these experiments. The left cornea of each anesthetized mouse was scarified with three parallel 1 mm incisions using a sterile 25⅝ gauge needle under a stereoscopic microscope. […] Eyes were examined macroscopically at 1 day post-infection (p.i.) and at times described below to ensure that all mice were similarly infected and to monitor the course of disease. All animals were treated humanely and in full compliance with the Association for Research in Vision and Ophthalmology resolution on usage and treatment of animals in research.
Worth, Tex.) begun at 18 h p.i. and then 3×/day for 7 days. Initiation of ICE inhibitor therapy at 18 h p.i. was chosen to test experimentally in order to provide more clinically relevant data. In addition, by this time point, it would be expected that a patient would notice ocular symptoms such as haziness, discomfort and pain and would seek care.
Mice (n=5/group) were color coded and examined in masked fashion by two independent observers at 1, 3, 5 and 7 days p.i. to grade the severity of disease after P. aeruginosa infection.
The samples were subjected to three freeze-thaw cycles and then centrifuged at 14,000 rpm for 20 min. […] The change in absorbance at 460 nm was continuously monitored for 5 min. The results were expressed as units of MPO/cornea.
For this, individual corneas were homogenized in sterile PBS and aliquots (100 μl) of serial dilutions were plated onto Pseudomonas isolation agar (Difco, Detroit, Mich.) plates in triplicate. Plates were incubated for 24 h at 37° C. Results were expressed as log10 number of CFU/cornea±SEM.
Corneas (n=5/group) were removed at 7 days p.i. and immediately stored at −70° C. Before analysis, individual corneas were homogenized in 0.1% Tween 20-PBS with a glass Kontes pestle (Fisher, Itasca, Ill.) centrifuged at 5000×g for 10 minutes at 4° C., and supernatants were used to quantify IL-1β and MIP-2 proteins. Results are reported as pg/ml.
The change in clinical score with time within a group was tested by the Friedman two-way analysis of variance by ranks. The difference in clinical score at each experimental time point between the ICE inhibitor and placebo treated B6 mice was tested by the Mann-Whitney U test. An unpaired, two-tailed Student's t-test was used to determine statistical significance for data from MPO assay, bacterial counts and ELISA analyses between treated and control groups. Mean differences were considered significant at P≦0.05. Experiments were repeated at least twice to ensure reproducibility and representative data from a single experiment are shown.

Assay [2] deals with Pseudomonas isolates resistant to ciprofloxacin. The note with it: 22 ciprofloxacin-resistant isolates of 141 culture-proven cases; cited from earlier work.

As to `O=C(O)c1cn(C2CC2)c2cc(N3CCNCC3)c(F)cc2c1=O` [ciprofloxacin], the “histopathological examination of eyes” value in assay [1] (7 days p.i.) was “heavier inflammatory cells infiltrate in the anterior chamber and adherent to the corneal endothelium”. Besides, the “viable bacteria in cornea (plate counts)” value in assay [1] (7 days p.i., ICE inhibitor vs. placebo (P=0.02)) is reported as “No bacterial colonies were isolated”. Further, the “protein levels of MIP-2 in cornea (ELISA)” value in assay [1] (7 days p.i., ICE inhibitor vs. vehicle (P=0.012), with ciprofloxacin vs. vehicle and ciprofloxacin (P=0.04)) was “markedly reduced”. Also, the “protein levels of IL-1β in cornea (ELISA)” value in assay [1] (7 days p.i., ICE inhibitor vs. vehicle (P=0.023), with ciprofloxacin vs. vehicle and ciprofloxacin (P=0.036)) is “markedly reduced”. Moreover, in assay [1] (day 7 p.i.), the “slit lamp microscopy of cornea” value is listed as “heavier cellular infiltration in the cornea as well as in the anterior chamber”. The mean MIC in assay [2] is 43 mg/L.
